Assay results taken from patent US20030026831A1, “Anionic liposomes for delivery of bioactive agents” (priority 2001, published 2003).
Read-outs that look alike come from different tables or passages of the source.

Tests used:
hippocampal neurons [1] = assay: Neuronal calcium (Fura-2) during perfusion of liposomes; assay type: cell-based, rat; conditions: continuous perfusion of N-Rh-DOPE labeled liposomes; 100 μM NMDA as positive stimulus
Protocol: FIG. 4. […] (a) Neurons were treated with 100 μg/ml heparin prior to incubation with AL-Cy3ON. Scale bar: 5 μm. (b) Fura-2 ratios in hippocampal neurons were not altered during perfusion of anionic liposomes labeled with N—Rh-DOPE but increased in response to 100 μM NMDA. Data were from a representative field of 23 neurons from among 110 neurons imaged in 5 experiments. (c) Image taken at 24 min (*) indicated the uptake of N-Rh-DOPE within the same neurons in the field.
Addition of activated a2-M (a2-M*) to cortical neurons caused a Ca^2+ influx that was both spatially and temporally discrete. […] To examine whether the endocytosis of anionic liposomes via LRP caused Ca^2+ influx into neurons, neuronal calcium currents were studied during a continuous perfusion of liposomes labeled with N—Rh-DOPE.
Liposomes labeled with N—Rh-DOPE were prepared in a manner identical to that described in Example 1 for liposomes encapsulating Cy3ONs except that the lipid films contained 1-2.5 mole percent N—Rh-DOPE and the liposomes were prepared with buffer alone (i.e., without ONs).

hippocampal neurons [2] = assay: Endocytosis assays: agents acting on AL-Cy3ON internalization; assay type: cell-based, rat; conditions: 10 minutes pretreatment (0.45 M sucrose, 1 μM FK506, 500 nM RAP, 100 μg/ml heparin or protamine sulfate, 5 μg/ml nocodazole, 10 μg/ml cytochalasin D, 100 nM wortmannin), then AL-Cy3ONs 30 minutes at 37° C.
Protocol: Endocytosis Assays. The following agents were used to manipulate specific steps of the endocytic cycle: 0.45 M hyperosmolar sucrose (ICN biochemicals), 1 μM FK-506 (Calbiochem), and 100 nM wortmannin, 5 μg/ml nocodazole, 10 μg/ml cytochalasin D, 100 μg/ml heparin and 100 μg/ml protamine sulfate, (all from Sigma-Aldrich). Receptor-associated protein (RAP) was a generous gift from Dr. Guojun Bu (Washington University, St. Louis, Mo.) and was used at a concentration of 500 nM (Bu et al., 1994). Cells were treated with the drugs or RAP for 10 minutes prior to incubation with AL-Cy3ONs for 30 minutes at 37° C. and fixed for imaging.
(§1) Confocal Microscopy and Image Analysis. Imaging was performed on a Leica TCS 4D confocal microscope (Deerfield, Ill.) equipped with a Mercury/Xenon lamp and argon/krypton laser. Cells were excited using the 488 nm laser line to detect Oregon Green 488-Transferrin and Alexa488-Dextran, and the emitted fluorescence was collected using a 515 long-pass filter. The 568 nm laser line was used to excite Cy3 and N—Rh-DOPE (LP590 emission). Cells were imaged at a plane midway between the substrate-attached plasma membrane and the top of the cell, such that neuronal nuclei were clearly identifiable. In some cases, the entire volume of the cell was scanned in 0.5 μm increments. Optimal images were obtained by averaging 16 images in the line-scan mode at the same fixed gains for all experiments. All fluorescent images presented in figures were equally contrast enhanced using ADOBE PHOTOSHOP (Adobe, Mountain View, Calif.).

hippocampal neurons [3] = assay type: cell-based, rat; conditions: for Neuronal survival after glutamate: survival at 48 hours
Protocol: Hippocampal Cell Culture. Primary cultures of hippocampal neurons were prepared from neonatal rat pups (p1 or p2) as previously described (Dubinsky, 1993). Neurons were plated at a density of 60,000 cells/cm^2 onto polylysine-coated plastic 12-well plates or 100 mm dishes (Becton Dickinson, Franklin Lakes, N.J.) in Neurobasal medium with B27 supplements (Life technologies, Rockville, Md.) and 0.5 mM glutamine. Fluorodeoxyuridine (15 μg/ml) was added to the cultures 24 hours after plating to inhibit glial growth. Under these culture conditions, the survival and growth of non-neuronal cells was minimized. Cells were maintained at 37° C. in 95% air/5% CO2 and were used between 6-8 days in vitro.
Neuroprotection Experiments. […] The ratio of viable cells to the total number of neurons in the pre-selected fields was calculated for quantifying survival.

hippocampal neurons [4] = assay: Lipid exacerbation of sub-maximal glutamate toxicity
Protocol: FIG. 9. […] Arrowhead: amount of anionic lipid present in liposomes corresponding to a 1 μM final concentration of ON. Arrow: amount of cationic lipid present in complexes corresponding to a +/−charge ratio of 1/2 and 1 μM final concentration of ON. 20, 40, and 100 μg DC-Chol/DOPE correspond to amounts present in complexes of +/−charge ratio 1.6/1, 3.2/1, and 8/1 (μmole lipid/μmole ON), respectively, for a 1 μM final ON concentration. Data expressed as Mean ±S.E.M., n≧9.
Neurons were treated with amounts of cationic lipid required to complex 1 μM ONs in +/−charge ratios (μmole lipid/μmole ON) of 1/2, 1.6/1, 3.2/1 and 8/1 (6.25, 20, 40 and 100 μg DC-Chol, respectively).

neurons = assay: Toxicity screening of commercial cationic lipids; conditions: 8 hours after incubation, compared to untreated controls
hippocampal neurons [5] = assay: Colocalization with dextran (late endosomes and lysosomes); assay type: cell-based, rat; conditions: 3 h; delivered in anionic liposomes
Protocol: (§2) Colocalization of Lipids and Oligonucleotides with Transferrin and Dextran. Intracellular fates of endocytosed liposomes and ONs were determined by comparing their intracellular distributions with that of Oregon Green 488-Transferrin (OG-Tf) and Alexa488-dextran (Molecular Probes, Eugene, Oreg.) used as markers for the recycling and lysosomal compartments, respectively. Neurons were incubated with AL-Cy3ONs and either 100 μg/ml OG-Tf, for 30 minutes, 1 hour or 3 hours; or with 1 mg/ml Alexa488-dextran for 3 hours. For the lipid transport experiments, neurons were incubated with liposomes labeled with N—Rh-DOPE and either OG-TF, for 30 minutes, 1 hour, or 3 hours; or with 1 mg/ml Alexa-dextran for 3 hours. In another set of experiments, neurons were incubated with AL-Cy3ONs for 30 minutes, rinsed and chased with 1 mg/ml Alexa 488 dextran for 3 hours. Cells were rinsed and fixed for imaging as described above.
as §1, with “Optimal images were obtained by averaging 16 images in the line-scan mode at the same fixed gains for all experiments. All fluorescent images presented in figures were equally contrast enhanced using ADOBE PHOTOSHOP (Adobe, Mountain View, Calif.).” left out
(§3) All image analysis was performed using the METAMORPH Imaging System software (Universal Imaging, Downington, Pa.). The cell outlines for each set of double-labeled fields were traced out manually in the corresponding differential interference contrast image and then used to mask the fluorescence images. In each cell, the total fluorescence intensity was measured and the percent of Cy3 label or rhodamine label that colocalized with transferrin or dextran was calculated.

hippocampal neurons [6] = assay: Colocalization with transferrin (early and recycling endosomes); assay type: cell-based, rat; conditions: delivered in anionic liposomes
Protocol: as §2, §1, §3

[7] = Lipid/ON (+/−) charge ratio 1/1
[8] = Lipid/ON (+/−) charge ratio 2/1
[9] = 20 μM each, added 1-2 minutes before 50 μM glutamate

## CN[C@H](CC(=O)O)C(=O)O [NMDA]
Hippocampal neurons [1]
  Calcium response (Fura-2 ratios) in hippocampal neurons: increased

## COC(=O)Nc1nc2ccc(C(=O)c3cccs3)cc2[nH]1 [nocodazole]
Hippocampal neurons [2]
  Effect on binding/internalization of AL-Cy3ONs by neurons: intracellular transport was inhibited

## p53 phosphodiester AsONs: free phosphodiester 5′-CTGTGAATCCTCCATGAC-3′ (SEQ ID NO:2) (unmodified DNA; listed as Rattus norvegicus)
Hippocampal neurons [3]; without encapsulation in anionic liposomes, 50 μM glutamate, 48 hours
  Neuroprotection by free ONs: not neuroprotective

## Cc1ccc(C(=O)Cn2c3c(sc2=N)CCCC3)cc1 [PFT-α, Pifithrin-α]
Hippocampal neurons [3]
  Concentrations toxic in hippocampal cultures: 20 to 100 µM
Hippocampal neurons [3]; 10 μM, added 3 hours before 50 μM glutamate
  Neuronal survival after glutamate: significantly increased the survival of glutamate-treated neurons
Hippocampal neurons [3]; 50 μM glutamate
  Concentrations not protective: 0.5 to 7 µM

## OC[C@H]1O[C@@](CO)(O[C@H]2O[C@H](CO)[C@@H](O)[C@H](O)[C@H]2O)[C@@H](O)[C@@H]1O [sucrose]
Hippocampal neurons [2]
  Effect on binding/internalization of AL-Cy3ONs by neurons: completely prevented internalization

## C=C1[C@@H](C)[C@H]2[C@H](Cc3ccccc3)NC(=O)[C@]23[C@H](OC(C)=O)/C=C/[C@@](C)(O)C(=O)[C@@H](C)C/C=C/[C@H]3[C@@H]1O [cytochalasin D]
Hippocampal neurons [2]
  Effect on binding/internalization of AL-Cy3ONs by neurons: prevented both binding and internalization of the liposomes

## RAP: 39 kDa LRP receptor-associated protein, inhibitor of all known ligand interactions of LRP
Hippocampal neurons [2]
  Effect on binding/internalization of AL-Cy3ONs by neurons: both binding and internalization of anionic liposomes was inhibited

## protamine sulfate
Hippocampal neurons [2]
  Effect on binding/internalization of AL-Cy3ONs by neurons: Neither heparin nor protamine altered the level of Cy3 fluorescence within neurons

## CC(C)CCC[C@@H](C)[C@H]1CC[C@H]2[C@@H]3CC=C4C[C@@H](OC(=O)NCCN(C)C)CC[C@]4(C)[C@H]3CC[C@]12C [DC-Chol, 3β-[N-(N′,N′-dimethylaminoethane)-carbamol] cholesterol]
Hippocampal neurons [4]; 6.25 μg DC-Chol (+/− charge ratio 1/2 for 1 μM ON), 48 hours post-glutamate
  Neuronal survival: survived 48 hours post-glutamate
Hippocampal neurons [4]; 20, 40 and 100 μg DC-Chol (charge ratios 1.6/1, 3.2/1, 8/1), 48 hours post-glutamate
  Neuronal survival: caused extensive neuronal loss
neurons; [7]
  % Neuronal survival: 45.7%
neurons; [8]
  % Neuronal survival: 17.3%

## heparin
Hippocampal neurons [2]
  Effect on binding/internalization of AL-Cy3ONs by neurons: Neither heparin nor protamine altered the level of Cy3 fluorescence within neurons

## N#Cc1cc2[nH]c(=O)c(=O)[nH]c2cc1[N+](=O)[O-] [CNQX]
Hippocampal neurons [3]; [9]
  Neuronal survival after glutamate: significantly increased the survival of glutamate-treated neurons

## N[C@@H](CCC(=O)O)C(=O)O [glutamate]
Hippocampal neurons [4]; 48 hour exposure to 10 μM glutamate alone
  Neuronal survival: 71%

## Lissamine Rhodamine DOPE [N-Rh-DOPE]
Hippocampal neurons [5]
  Percent colocalization with Dextran: 22.18 ± 1.5%
Hippocampal neurons [6]; 30 min
  Percent colocalization with Transferrin: 45.56 ± 2.2%
Hippocampal neurons [6]; 1 h
  Percent colocalization with Transferrin: 51.88 ± 2.7%

## CCCCCCCC/C=C\CCCCCCCC(=O)OCC(C[N+](C)(C)C)OC(=O)CCCCCCC/C=C\CCCCCCCC (stereo not shown) [DOTAP, 1,2-dioleoyl-3-trimethylammonium-propane]
neurons; [7]
  % Neuronal survival: 28.2%
neurons; [8]
  % Neuronal survival: ˜0%

## CCCCCCCC/C=C\CCCCCCCC(=O)OC[C@H](COP(=O)(O)OC[C@H](N)C(=O)O)OC(=O)CCCCCCC/C=C\CCCCCCCC [DOPS, 1,2-dioleoyl-sn-glycero-3-[phospho-L-serine]]
Hippocampal neurons [4]; 40 μg lipid (liposomes without AsONs), then 10 μM glutamate for 48 hours
  Neuronal survival: 48%
Hippocampal neurons [4]; liposomes without AsONs, then 10 μM glutamate for 48 hours
  Effect of increasing amounts of lipid on glutamate toxicity: dose-dependently exacerbate toxicity

## C[C@]12N[C@H](Cc3ccccc31)c1ccccc12 [MK-801]
Hippocampal neurons [3]; [9]
  Neuronal survival after glutamate: significantly increased the survival of glutamate-treated neurons
